Experimental data reported in US7632844B2, “2-hydroxy-6-phenylphenanthridines as PDE-4 inhibitors” (Nycomed GmbH, priority 2002, dated 2009).

The compounds below were run against T1, PDE4B2 (GB no. M97515) (Homo sapiens, UniProt Q07343) (assay: Inhibition of PDE4B2 activity, Method b (modified SPA test, recombinant PDE expressed in SF21 cells)). Conditions: 0.5 μM cAMP, read-out: Inhibition of the PDE4 activity, −log IC50 (converted).
T1 construct: made in house; host or cells: SF21 insect cells (baculovirus; virus made in SF9 cells)
T1 sequence (Q07343 1-564 isoform Q07343-2): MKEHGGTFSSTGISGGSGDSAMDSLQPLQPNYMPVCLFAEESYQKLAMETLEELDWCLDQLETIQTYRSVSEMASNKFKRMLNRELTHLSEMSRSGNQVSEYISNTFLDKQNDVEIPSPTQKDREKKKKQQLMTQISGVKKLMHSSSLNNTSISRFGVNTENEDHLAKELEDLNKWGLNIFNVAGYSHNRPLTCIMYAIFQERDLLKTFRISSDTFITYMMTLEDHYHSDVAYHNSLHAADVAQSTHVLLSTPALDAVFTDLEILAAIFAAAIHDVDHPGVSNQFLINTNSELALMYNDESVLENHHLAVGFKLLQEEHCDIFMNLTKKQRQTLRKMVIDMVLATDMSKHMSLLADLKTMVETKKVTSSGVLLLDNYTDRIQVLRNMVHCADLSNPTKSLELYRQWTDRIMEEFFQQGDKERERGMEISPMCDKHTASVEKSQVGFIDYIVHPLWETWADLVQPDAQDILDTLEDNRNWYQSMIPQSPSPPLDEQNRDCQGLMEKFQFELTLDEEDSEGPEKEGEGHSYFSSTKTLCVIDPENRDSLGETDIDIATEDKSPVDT
Format: biochemical
Protocol: The PDE4B2 (GB no. M97515) was a gift of Prof. M. Conti (Stanford University, USA). It was amplified from the original plasmid (pCMV5) via PCR with primers Rb9 (5′-[…]-3′) and Rb10 (5′-[…]-3′) and cloned into the pCR-Bac vector (Invitrogen, Groningen, NL).
The recombinant baculovirus was prepared by means of homologous recombination in SF9 insect cells. The expression plasmid was cotransfected with Bac-N-Blue (Invitrogen, Groningen, NL) or Baculo-Gold DNA (Pharmingen, Hamburg) using a standard protocol (Pharmingen, Hamburg). Wt virus-free recombinant virus supernatant was selected using plaque assay methods. After that, high-titre virus supernatant was prepared by amplifying 3 times. PDE was expressed in SF21 cells by infecting 2×10^6 cells/ml with an MOI (multiplicity of infection) between 1 and 10 in serum-free SF900 medium (Life Technologies, Paisley, UK). The cells were cultured at 28° C. for 48-72 hours, after which they were pelleted for 5-10 min at 1000 g and 4° C.
The SF21 insect cells were resuspended, at a concentration of approx. 10^7 cells/ml, in ice-cold (4° C.) homogenization buffer (20 mM Tris, pH 8.2, containing the following additions: 140 mM NaCl, 3.8 mM KCl, 1 mM EGTA, 1 mM MgCl2, 10 mM β-mercaptoethanol, 2 mM benzamidine, 0.4 mM Pefablock, 10 μM leupeptin, 10 μM pepstatin A, 5 μM trypsin inhibitor) and disrupted by ultrasonication. The homogenate was then centrifuged for 10 min at 1000×g and the supernatant was stored at −80° C. until subsequent use (see below). The protein content was determined by the Bradford method (BioRad, Munich) using BSA as the standard.
PDE4B2 activity is inhibited by the said compounds in a modified SPA (scintillation proximity assay) test, supplied by Amersham Biosciences (see procedural instructions “phosphodiesterase [3H]cAMP SPA enzyme assay, code TRKQ 7090”), carried out in 96-well microtiter plates (MTP's). The test volume is 100 μl and contains 20 mM Tris buffer (pH 7.4), 0.1 mg of BSA (bovine serum albumin)/ml, 5 mM Mg^2+, 0.5 μM cAMP (including about 50,000 cpm of [3H]cAMP), 1 μl of the respective substance dilution in DMSO and sufficient recombinant PDE (1000×g supernatant, see above) to ensure that 10-20% of the cAMP is converted under the said experimental conditions. […] After a preincubation of 5 min at 37° C., the reaction is started by adding the substrate (cAMP) and the assay is incubated for a further 15 min; after that, it is stopped by adding SPA beads (50 μl). In accordance with the manufacturer's instructions, the SPA beads had previously been resuspended in water, but were then diluted 1:3 (v/v) in water; the diluted solution also contains 3 mM IBMX to ensure a complete PDE activity stop. After the beads have been sedimented (>30 min), the MTP's are analyzed in commercially available luminescence detection devices. The corresponding IC50 values of the compounds for the inhibition of PDE activity are determined from the concentration-effect curves by means of non-linear regression.

IC50, 0.182 to 6.03 nM:
CCCCOc1ccc(C2=N[C@@H]3CC[C@@H](O)C[C@@H]3c3cc(OC)c(OC)cc32)cc1 (racemic) [Compound 43, (±)-(2RS,4aRS,10bRS)-6-(4-Butoxy-phenyl)-8,9-dimethoxy-1,2,3,4,4a,10b-hexahydrophenanthridin-2-ol]
COc1cc2c(cc1OC)[C@H]1C[C@H](O)CC[C@H]1N=C2c1ccc(NC(C)=O)cc1 (racemic) [Compound 45, (±)-N-[4-((2RS,4aRS,10bRS)-2-Hydroxy-8,9-dimethoxy-1,2,3,4,4a,10b-hexahydro-phenanthridin-6-yl)-phenyl]-acetamide]
COc1cc2c(cc1OC)[C@H]1C[C@H](O)CC[C@H]1N=C2c1ccc(Cl)cc1 (racemic) [Compound 46, (±)-(2RS,4aRS,10bRS)-6-(4-Chloro-phenyl)-8,9-dimethoxy-1,2,3,4,4a,10 b-hexahydro-phenanthridin-2-ol]
CCCOc1cc(C2=N[C@@H]3CC[C@@H](O)C[C@@H]3c3cc(OC)c(OC)cc32)ccc1OC (racemic) [Compound 48, (±)-(2RS,4aRS,10bRS)-8,9-Dimethoxy-6-(4-methoxy-3-propoxy-phenyl)-1,2,3,4,4a,10b-hexahydro-phenanthridin-2-ol]
COc1cc2c(cc1OC)[C@H]1C[C@H](O)CC[C@H]1N=C2c1ccc(OC(F)F)cc1 (racemic) [Compound 49, (±)-(2RS,4aRS,10bRS)-6-[4-(1,1-Difluoro-methoxy)-phenyl]-8,9-dimethoxy-1,2,3,4,4a,10b-hexahydro-phenanthridin-2-ol]
CCOc1cc2c(cc1OC)C(c1ccc(C(=O)OC)cc1)=N[C@@H]1CC[C@@H](O)C[C@H]21 (racemic) [Compound 50, (±)-4-((2RS,4aRS,10bRS)-9-Ethoxy-2-hydroxy-8-methoxy-1,2,3,4,4a,10 b-hexahydro-phenanthridin-6-yl)-benzoic acid methyl ester]
CCOc1cc2c(cc1OC)C(c1ccc(F)cc1)=N[C@@H]1CC[C@@H](O)C[C@H]21 (racemic) [Compound 51, (±)-(2RS,4aRS,10bRS)-9-Ethoxy-6-(4-fluoro-phenyl)-8-methoxy-1,2,3,4,4a,10b-hexahydro-phenanthridin-2-ol]
CCOc1cc2c(cc1OC)C(c1ccc(C#N)cc1)=N[C@@H]1CC[C@@H](O)C[C@H]21 (racemic) [Compound 52, (±)-4-((2RS,4aRS,10bRS)-9-Ethoxy-2-hydroxy-8-methoxy-1,2,3,4,4a,10b-hexahydro-phenanthridin-6-yl)-benzonitrile]
CCOc1cc2c(cc1OC)C(c1ccc(OCC)c(OCC3CC3)c1)=N[C@@H]1CC[C@@H](O)C[C@H]21 (racemic) [Compound 53, (±)-(2RS,4aRS,10bRS)-6-(3-Cyclopropylmethoxy-4-ethoxy-phenyl)-9-ethoxy-8-methoxy-1,2,3,4,4a,10b-hexahydro-phenanthridin-2-ol]
CCOc1cc2c(cc1OC)C(c1ccc(OC(F)F)c(OCC3CC3)c1)=N[C@@H]1CC[C@@H](O)C[C@H]21 (racemic) [Compound 54, (±)-(2RS,4aRS,10bRS)-6-[3-Cyclopropylmethoxy-4-(1,1-difluoro-methoxy)-phenyl]-9-ethoxy-8-methoxy-1,2,3,4,4a,10b-hexahydro-phenanthridin-2-ol]
CCOc1cc2c(cc1OC)C(c1ccc(OC(F)F)c(OC(F)F)c1)=N[C@@H]1CC[C@@H](O)C[C@H]21 (racemic) [Compound 55, (±)-(2RS,4aRS,10bRS)-6-[3,4-Bis-(1,1-difluoro-methoxy)-phenyl]-9-ethoxy-8-methoxy-1,2,3,4,4a,10b-hexahydro-phenanthridin-2-ol]
CCOc1cc2c(cc1OC)C(c1cccc(OC(F)F)c1)=N[C@@H]1CC[C@@H](O)C[C@H]21 (racemic) [Compound 56, (±)-(2RS,4aRS,10bRS)-6-[3-(1,1-Difluoro-methoxy)-phenyl]-9-ethoxy-8-methoxy-1,2,3,4,4a,10b-hexahydro-phenanthridin-2-ol]
CCOc1cc2c(cc1OC)C(c1ccc(OC(F)(F)C(F)F)cc1)=N[C@@H]1CC[C@@H](O)C[C@H]21 (racemic) [Compound 57, (±)-(2RS,4aRS,10bRS)-9-Ethoxy-8-methoxy-6-[4-(1,1,2,2-tetrafluoro-ethoxy)-phenyl]-1,2,3,4,4a,10b-hexahydro-phenanthridin-2-ol]
CCOc1cc2c(cc1OC)C(c1ccc(OC(F)(F)F)cc1)=N[C@@H]1CC[C@@H](O)C[C@H]21 (racemic) [Compound 58, (±)-(2RS,4aRS,10bRS)-9-Ethoxy-8-methoxy-6-(4-trifluoromethoxy-phenyl)-1,2,3,4,4a,10b-hexahydro-phenanthridin-2-ol]
CCOc1cc2c(cc1OC)C(c1ccc(OC)c(F)c1)=N[C@@H]1CC[C@@H](O)C[C@H]21 (racemic) [Compound 59, (±)-(2RS,4aRS,10bRS)-9-Ethoxy-6-(3-fluoro-4-methoxy-phenyl)-8-methoxy-1,2,3,4,4a,10b-hexahydro-phenanthridin-2-ol]
CCOc1cc2c(cc1OC)C(c1ccc(F)c(F)c1)=N[C@@H]1CC[C@@H](O)C[C@H]21 (racemic) [Compound 60, (±)-(2RS,4aRS,10bRS)-6-(3,4-Difluoro-phenyl)-9-ethoxy-8-methoxy-1,2,3,4,4a,10b-hexahydro-phenanthridin-2-ol]
CCOc1cc2c(cc1OC)C(c1cccc(F)c1)=N[C@@H]1CC[C@@H](O)C[C@H]21 (racemic) [Compound 61, (±)-(2RS,4aRS, 10bRS)-9-Ethoxy-6-(3-fluoro-phenyl)-8-methoxy-1,2,3,4,4a,10b-hexahydro-phenanthridin-2-ol]
CCOc1cc2c(cc1OC)C(c1ccc(Br)cc1)=N[C@@H]1CC[C@@H](O)C[C@H]21 (racemic) [Compound 62, (±)-(2RS,4aRS,10bRS)-6-(4-Bromo-phenyl)-9-ethoxy-8-methoxy-1,2,3,4,4a,10b-hexahydro-phenanthridin-2-ol]
COc1cc2c(cc1OC)[C@H]1C[C@H](O)CC[C@H]1N=C2c1ccc(C)cc1 (racemic) [Compound 63, (±)-(2RS,4aRS,10bRS)-8,9-Dimethoxy-6-p-tolyl-1,2,3,4,4a,10b-hexahydro-phenanthridin-2-ol]
COc1cc2c(cc1OC)[C@H]1C[C@H](O)CC[C@H]1N=C2c1ccc(Oc2ccccc2)cc1 (racemic) [Compound 64, (±)-(2RS,4aRS,10bRS)-8,9-Dimethoxy-6-(4-phenoxy-phenyl)-1,2,3,4,4a,10b-hexahydro-phenanthridin-2-ol]
COCCO[C@@H]1CC[C@H]2N=C(c3ccc(OCC4CC4)c(OCC4CC4)c3)c3cc(OC)c(OC)cc3[C@H]2C1 (racemic) [Compound 76, (±)-(2RS,4aRS,10bRS)-6-(3,4-Bis-cyclopropylmethoxy-phenyl)-8,9-dimethoxy-2-(2-methoxy-ethoxy)-1,2,3,4,4a,10b-hexahydro-phenanthridine]
